According to patent publication US6440999B1, “Intimal thickening inhibitory agent” (Chugai Seiyaku Kabushiki Kaisha, priority 1995, dated 2002):

Test system: A7r5 cells derived from the aorta of a rat
Assay: Inhibition of serum-stimulated proliferation of vascular smooth muscle cells, acid phosphatase activity
Format: cell-based
Details: 48 hours after 2% FBS stimulation, n = 3, mean ± SD; for Acid Phosphatase Activity Absorbance (OD405): control 0.867 ± 0.089
Procedure: In order to assess the inhibitory effect of the compounds of the present invention on serum-stimulated proliferation of vascular smooth muscle cells in vitro, the compounds of Examples 1, 4, 20, 22, 27, 31, 36, 50, 52, and 58 were tested using A7r5 cells derived from the aorta of a rat (ATCC-CRL-1444).
Using DMEM medium containing 10% FBS, the cells were placed on 96-well microtiter plates with 5×10^3 cells/0.2 ml/ well and then incubated. The medium was exchanged for 2% FBS-containing DMEM medium on the third day and then for 0.2% FBS-containing DMEM medium on the fourth day from the start of the incubation. After 24-hour incubation in the 0.2% FBS-containing DMEM medium, the test compound was added. Each of the test compounds were added to the wells in the form of a solution or suspension in ethanol in an amount of 1 μl/well to final compound concentrations indicated in Table 3 below and the resultant ethanol concentration of 0.5% in each well. After additional 24-hour incubation, the medium was removed, and 0.2 ml of DMEM medium and the test compound were added thereto again, and the cells were stimulated by serum (2% FBS). Forty-eight hours after the stimulation, the acid phosphatase activity in the wells was measured by means of a kit (Abacus Cell Proliferation Kit, available from Clontech Lab. Inc. CA, U.S.A.) and evaluated as an indication of cell proliferation.

CCCCCC1(CCCCC)Cc2c(cc(C(C)(C)C)c(O)c2C(C)(C)C)O1 [Example 36, 4,6-Di-t-butyl-2,2-di-n-pentyl-5-hydroxy-2,3-dihydrobenzofuran]
Acid Phosphatase Activity Absorbance (OD405) (10 μM): 0.733 ± 0.060 | Acid Phosphatase Activity Absorbance (OD405) (100 μM): 0.539 ± 0.055 | activity at 10 µM (Rattus norvegicus, A7R5, 10 μM, control 100 ± 10): 84 ± 7% | activity at 100 µM (Rattus norvegicus, A7R5, 100 μM, control 100 ± 10): 62 ± 6%
